Experimental data reported in PubChem BioAssay (NCI).
Values joined by “and” are separate entries in the source; they are usually repeats but may differ in a detail not shown here. Equal entries are not always repeated.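 The compound was tested at five concentrations on cells cultured in 96-well plates, with a 48-hour exposure period. At the GI50, growth is halved. TGI is the concentration that stops growth completely.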

Columns and labels:
Assay in all cases: inhibition of tumour cell growth, NCI panel, 48 h
U251 CNS = tested on: U251 CNS
UACC-62 melanoma = tested on: UACC-62 melanoma
OVCAR-4 ovarian = tested on: OVCAR-4 ovarian
EKVX NSCLC = tested on: EKVX NSCLC
OVCAR-3 ovarian = tested on: OVCAR-3 ovarian
K-562 leukemia = tested on: K-562 leukemia
DU-145 prostate = tested on: DU-145 prostate
MDA-MB-435 = tested on: MDA-MB-435
786-0 renal = tested on: 786-0 renal
M14 melanoma = tested on: M14 melanoma

Row | Structure (SMILES) | TGI (U251 CNS) | TGI (UACC-62 melanoma) | TGI (OVCAR-4 ovarian) | TGI (EKVX NSCLC) | TGI (OVCAR-3 ovarian) | TGI (K-562 leukemia) | TGI (DU-145 prostate) | TGI (MDA-MB-435) | TGI (786-0 renal) | TGI (M14 melanoma) | GI50 (U251 CNS) | GI50 (UACC-62 melanoma) | GI50 (EKVX NSCLC) | GI50 (DU-145 prostate) | GI50 (MDA-MB-435) | GI50 (M14 melanoma) | GI50 (OVCAR-3 ovarian) | GI50 (K-562 leukemia) | GI50 (OVCAR-4 ovarian)
1 | COc1cc2c(ccc3c4cc(OC)c(OC)cc4c[n+](C)c23)cc1O | 2.94 µM | 11.5 µM | > 65.8 µM | > 71.5 µM | 54.3 µM | > 75 µM |  |  |  |  |  |  |  |  |  |  |  |  | 
2 | COc1ccc(C(=O)c2sc(Nc3ccc(Cl)cc3)nc2N)cc1 | > 55.5 µM | > 100 µM | > 61.4 µM | > 100 µM | 35 µM | > 100 µM | > 100 µM | 7.35 µM | 28.6 µM | > 100 µM |  |  |  |  |  |  |  |  | 
3 | CN(C)CC(CC1=C(CC(CN(C)C)N(C)C)CCC1)N(C)C (centres undefined) | > 100 µM | > 100 µM | > 100 µM | > 100 µM | > 100 µM | > 100 µM |  |  |  |  |  |  |  |  |  |  |  |  | 
4 | Nc1nc(SCCc2ccccc2)nc2nc3c(c(-c4ccccc4)c12)CCCC3 | > 100 µM | > 100 µM | > 100 µM | > 100 µM | > 100 µM | > 100 µM | > 100 µM | > 100 µM |  | > 100 µM |  |  |  |  |  |  |  |  | 
5 | NC(=O)c1c(NC(=O)c2ccccn2)sc2c1CCC(=O)C2 | > 100 µM | 67.1 µM |  | > 100 µM | 45.7 µM | > 100 µM | > 100 µM | > 100 µM |  | > 100 µM | 2.14 µM | 2.52 µM | 5.01 µM | > 100 µM | 3.22 µM | 3.88 µM | 3.25 µM | 1.54 µM | 
6 | O=C(O)C1C2CCC(O2)C1C(=O)Nc1cccc2cccnc12 (centres undefined) | > 100 µM | > 100 µM | > 100 µM | > 100 µM | > 100 µM | > 100 µM | > 100 µM | > 100 µM | > 100 µM | > 100 µM |  |  |  |  |  |  |  |  | 
7 | CCN(CC(=O)O)C(=O)c1cccnc1 | > 100 µM | > 100 µM | > 100 µM | > 100 µM | > 100 µM | > 100 µM | > 100 µM | > 100 µM | > 100 µM | > 100 µM |  |  |  |  |  |  |  |  | 
8 | CCOC(=O)C1=NN(c2ccc(C)cc2)C2=CC(C)=NN(C)C(=S)N21 | > 100 µM | > 100 µM | > 100 µM | > 100 µM | > 100 µM | > 100 µM | > 100 µM | > 100 µM |  | > 100 µM |  |  |  |  |  |  |  |  | 
9 | CCOC(=O)C(NC(=O)c1ccco1)(Nc1nc2ccc(OCC)cc2s1)C(F)(F)F (centres undefined) | > 100 µM | > 100 µM | > 100 µM | > 100 µM | > 100 µM | > 100 µM | > 100 µM | 80.2 µM | 68.4 µM | > 100 µM |  |  |  |  |  |  |  |  | 
10 | Nc1cccc(/C=C/C(=O)N2CCN(CCOC(c3ccccc3)c3ccccc3)CC2)c1 | 29.3 µM | 29.6 µM | 26.1 µM | 36.2 µM | 32 µM | 26.7 µM | 28.5 µM | 29.8 µM | 30.3 µM | 26 µM |  |  |  |  |  |  |  |  | 
11 | COc1cccc([C@H]2C/C(=N\NC(=O)C(=O)N[C@@H](C)c3ccccc3)c3ccccc3N2)c1 | > 100 µM | 0.0962 µM | > 100 µM | > 100 µM | > 100 µM | 0.0554 µM | 15.6 µM |  | 97.3 µM | > 100 µM | 0.0325 µM |  |  |  |  |  |  |  | 45.3 µM
12 | COc1cc2c(cc1O)CC[C@@H]1[C@@H]2CC[C@]2(C)[C@@H](OCCN(C)C)CC[C@@H]12 | 0.872 µM | 0.363 µM | 5.84 µM | 28.5 µM | 0.966 µM | 0.685 µM | 5.35 µM | 0.208 µM |  |  | 0.219 µM | 0.128 µM | 0.527 µM | 0.182 µM | 0.0997 µM |  | 0.183 µM | 0.15 µM | 0.306 µM
13 | COc1cccc2c1Cc1cc(-c3ccccc3)[n+](C)n1-2 | > 100 µM | 30.3 µM | 14.5 µM | 8.22 µM | > 100 µM | > 100 µM | > 100 µM | 25.5 µM | 84.2 µM | 24.9 µM |  |  |  |  |  |  |  |  | 
14 | O=c1cccccc1[O-].O=c1cccccc1[O-].[O]=[U+2]=[O] | 72 µM | 41.6 µM | 57 µM | > 100 µM | 36.8 µM |  |  |  |  | 73.2 µM | 25.9 µM |  |  |  |  |  |  |  | 
15 | O=C(OCN1C(=O)C2C3C=CC(C2C1=O)C1C2C(=O)N(COC(=O)C4CCCN4)C(=O)C2C31)C1CCCN1 (centres undefined) | > 67.5 µM | > 100 µM | > 100 µM | > 100 µM | > 100 µM | > 100 µM |  |  | > 60.6 µM | > 100 µM |  |  |  |  |  |  |  |  | 
16 | CCCCCCCCC/C=C/C=C/C(=O)NCC(=O)NC1C(O)C(O)C(Nc2ncnc3nc[nH]c23)OC1C(O)CO (centres undefined) | 0.0217 µM | 0.0171 µM | 0.0515 µM |  | 0.0436 µM | > 100 µM |  | 0.256 µM | 0.176 µM and 0.256 µM | 0.143 µM and 1.22 µM | 0.00214 µM |  |  | 0.00477 µM |  | 0.0248 µM |  | 0.36 µM | 0.00022 µM
17 | NCCSC(c1ccccc1)c1ccccc1 | 33.3 µM | 31.3 µM | 46.8 µM | 70.1 µM | 40.6 µM |  | 93.5 µM | 33.8 µM | 32.8 µM | 29.9 µM |  |  |  |  |  |  |  |  | 
18 | CCC(C)C1=C(OC(C)=O)[N+]2([O-])Oc3ccc(-c4c(OC(C)=O)c(OC(C)=O)c(-c5ccc(OC(C)=O)cc5)c(OC(C)=O)c4OC(C)=O)cc3OC2(C(C)CC)C(=O)N1OC(C)=O (centres undefined) | > 50 µM | 16.7 µM | 38 µM | 32.7 µM | 29.5 µM | 39.7 µM | > 50 µM | > 50 µM | 24 µM | > 50 µM |  |  |  |  |  |  |  |  | 
19 | O=C(/C=C/c1ccc(O)c(-c2cc(C(=O)/C=C/c3ccc(O)cc3)c(O)cc2O)c1)c1ccc(O)cc1O | > 50 µM | 20.4 µM | > 50 µM | > 50 µM | 43.8 µM | 35.1 µM | > 50 µM | > 50 µM | > 50 µM | > 50 µM |  |  |  |  |  |  |  |  | 
20 | Fc1ccc(C(OCCN2CCC3CCC(C2)N3C/C=C/c2ccco2)c2ccc(F)cc2)cc1 (centres undefined) | 21.1 µM | 26.7 µM | 25.2 µM |  | 27.5 µM | 20.7 µM | 34.6 µM | 26.5 µM | 22.2 µM | 18.8 µM |  |  |  |  |  |  |  |  | 
